Columns and labels:
[1] = target: T1, prostaglandin D2 (PGD2) receptor 1 (DP1) (Homo sapiens, UniProt Q13258); experiment: DP1 receptor cAMP agonist assay (HEK293T cells); assay type: cell-based; conditions: for DP1 Relative to Tre: relative to treprostinil EC50 values, * partial agonists or ambiguous dose-response curves
T1 sequence (Q13258 1-359): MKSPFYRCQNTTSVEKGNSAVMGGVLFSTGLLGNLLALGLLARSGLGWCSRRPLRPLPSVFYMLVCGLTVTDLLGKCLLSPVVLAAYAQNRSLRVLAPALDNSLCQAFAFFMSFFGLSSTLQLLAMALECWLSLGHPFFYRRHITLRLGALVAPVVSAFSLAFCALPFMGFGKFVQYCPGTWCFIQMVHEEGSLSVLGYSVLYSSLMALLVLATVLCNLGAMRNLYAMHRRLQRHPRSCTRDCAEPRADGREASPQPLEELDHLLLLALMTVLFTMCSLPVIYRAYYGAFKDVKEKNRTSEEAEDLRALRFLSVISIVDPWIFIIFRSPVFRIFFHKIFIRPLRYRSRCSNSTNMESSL
Protocol: (§1) Cyclic AMP assay kit: Multiscreen™ TR-FRET cAMP 1.0 No Wash Assay Kit (Multispan, Inc.)
(§2) Cells were thawed from frozen cells and resuspended in assay buffer at desired concentrations. cAMP or Calcium assays were performed according to the manufacturer's protocol using Multiscreen™ TR-FRET cAMP 1.0 No Wash Assay Kit or Multiscreen™ Calcium 1.0 No Wash Kit.
(§3) Gas Cyclic AMP (cAMP) Assay: In agonist mode testing, cells were seeded in a 384-well plate at an appropriate density and then were treated with compounds and incubated at 37° C. for 20 minutes. The reaction was terminated by […] trFluor™ Eu-labeled cAMP and trFluor™ 650-labeled anti-cAMP antibody in lysis buffer. […] All testing wells contained 0.1% DMSO in the final concentrations.
(§4) Data in graphs are represented in Mean±SD. Dose-dependent responses were fitted with sigmoidal dose-response curves allowing variable slopes using GraphPad Prism version 6 (Graphpad Prism).
(§5) These studies used cell lines overexpressing either human IP, EP2 or DP1, or EP1 receptors, and following incubation with varying concentrations of compounds, cAMP levels were measured using Fluorescence Resonance Energy Transfer (FRET).

[2] = target: prostaglandin I2 (PGI2) receptor (IP) (Homo sapiens, UniProt P43119); experiment: IP receptor cAMP agonist assay (CHO-K1 cells); assay type: cell-based; conditions: relative to treprostinil EC50 values, * partial agonists or ambiguous dose-response curves
prostaglandin I2 (PGI2) receptor (IP), sequence (P43119 whole entry): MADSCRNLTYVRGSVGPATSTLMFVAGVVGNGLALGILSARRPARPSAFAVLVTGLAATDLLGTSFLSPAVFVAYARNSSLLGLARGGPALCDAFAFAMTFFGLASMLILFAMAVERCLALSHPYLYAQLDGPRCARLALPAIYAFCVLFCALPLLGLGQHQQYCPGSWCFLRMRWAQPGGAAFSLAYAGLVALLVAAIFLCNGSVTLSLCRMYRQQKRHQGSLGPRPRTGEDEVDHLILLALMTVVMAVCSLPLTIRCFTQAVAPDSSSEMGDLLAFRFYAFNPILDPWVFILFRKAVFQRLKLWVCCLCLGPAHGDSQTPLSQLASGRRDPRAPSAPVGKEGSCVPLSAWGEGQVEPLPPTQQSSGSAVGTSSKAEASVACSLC
Protocol: as §1, §2, §3, §4, §5

[3] = Hydrolysis of prodrugs to treprostinil at pH 6, 7, 8 and 40 C; assay type: physicochemical
Excerpt: Tables 24, 25 and 26 present data for hydrolysis of selected treprostinil prodrugs at pH 6, 7 and 8, respectively, and 40 C.

[4] = Stability in human subcutaneous skin homogenate
[5] = target: prostaglandin E2 (PGE2) receptor 2 (EP2) (Homo sapiens, UniProt P43116); experiment: EP2 receptor cAMP agonist assay (HEK293T cells); assay type: cell-based; conditions: for EP2 Relative to Tre: Table 22, relative to treprostinil EC50 values, * partial agonists or ambiguous dose-response curves
prostaglandin E2 (PGE2) receptor 2 (EP2), sequence (P43116 whole entry): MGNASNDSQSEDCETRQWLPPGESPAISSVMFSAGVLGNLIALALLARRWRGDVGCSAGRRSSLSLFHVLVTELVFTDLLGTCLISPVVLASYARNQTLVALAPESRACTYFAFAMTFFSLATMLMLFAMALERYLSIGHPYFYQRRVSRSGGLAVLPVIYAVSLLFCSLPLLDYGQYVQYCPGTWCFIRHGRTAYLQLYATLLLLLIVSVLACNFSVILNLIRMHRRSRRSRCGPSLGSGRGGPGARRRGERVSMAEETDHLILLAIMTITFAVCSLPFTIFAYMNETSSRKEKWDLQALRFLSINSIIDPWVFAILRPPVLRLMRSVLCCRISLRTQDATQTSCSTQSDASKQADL
Protocol: as §1, §2, §3, §4, §5

[6] = target: T2, PGE2 receptor 1 (EP1) (Homo sapiens, UniProt P34995); experiment: EP1 receptor calcium agonist assay (HEK293T cells); assay type: cell-based; conditions: Table 22; relative to treprostinil EC50 values; * partial agonists or ambiguous dose-response curves
T2 sequence (P34995 1-402): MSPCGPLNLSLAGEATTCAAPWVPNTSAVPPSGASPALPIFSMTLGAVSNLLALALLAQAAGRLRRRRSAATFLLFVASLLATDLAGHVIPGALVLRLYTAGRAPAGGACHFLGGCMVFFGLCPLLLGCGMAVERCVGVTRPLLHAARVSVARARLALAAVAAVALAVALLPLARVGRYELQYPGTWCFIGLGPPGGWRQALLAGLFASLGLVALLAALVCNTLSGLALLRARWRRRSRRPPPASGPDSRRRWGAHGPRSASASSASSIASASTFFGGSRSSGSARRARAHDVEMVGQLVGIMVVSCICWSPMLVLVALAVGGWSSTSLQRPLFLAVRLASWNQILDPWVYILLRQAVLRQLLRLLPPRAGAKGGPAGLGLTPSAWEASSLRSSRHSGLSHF
Protocol: Calcium assay kit: Multiscreen™ Calcium 1.0 No Wash Kit (Multispan, Inc., Cat #MSCA01-1)
• EP1 Calcium and DP1 cAMP Assays: HBSS plus 20 mM HEPES • EP2 and IP1 cAMP Assays: 1 mM IBMX in HBSS plus 20 mM HEPES Instruments: FlexStation III (Molecular Devices) and FLIPR 384 (Molecular Devices)
as §2
Calcium Assay: Cells were seeded in a 384-well plate at an appropriate density. The calcium assay was conducted according to the manufacturer's protocols (Multiscreen Calcium 1.0 No Wash Assay Kit). The calcium dye loading buffer was added to the cells and incubated for 1 hour at 37° C. For agonist mode, cells were injected with Iloprost control agonist or test compound by FLIPR and calcium mobilization was monitored for 180 seconds with compound injected into the wells at the 19th second. Fluorescent emissions were read at 525 nm with excitation at 490 nm in a FLIPR 384 instrument (Molecular Devices).
Calcium Assay: Calcium assay results are expressed as “RFU” as defined in figure below. Data are represented in Mean±SEM. Dose-response curves were fitted using “Sigmoidal dose-response (variable slope)” function in GraphPad Prism 6. EC50 values were calculated based on the fitted curves.
Prostaglandin receptor activity assessments with treprostinil and treprostinil analogues have been conducted, and a historical, positive control agonist for these receptors, iloprost (for IP, EP2 and EP1) or PGD2 (for DP1), was also included. These studies used cell lines overexpressing either human IP, EP2 or DP1, or EP1 receptors, and following incubation with varying concentrations of compounds, cAMP levels were measured using Fluorescence Resonance Energy Transfer (FRET). The 665/620 (acceptor/donor emission signals) ratio is inversely proportional to the concentration of cAMP.

[7] = oral delivery, animal studies; cited from earlier work
[8] = regardless of the route of administration; cited from earlier work

Compound | DP1 Relative to Tre ([1]; Table 22) [x] | IP Relative to Tre ([2]; Table 22) | Hydrolysis to treprostinil, % Area, t = 1 week ([3]; pH 6, 40 C.) [% Area] | Hydrolysis to treprostinil, % Area, t = 2 weeks ([3]; pH 6, 40 C.) [% Area] | Hydrolysis to treprostinil, % Area, t = 3 weeks ([3]; pH 6, 40 C.) [% Area] | Hydrolysis to treprostinil, % Area, t = 1 week ([3]; pH 7, 40 C.) [% Area] | Hydrolysis to treprostinil, % Area, t = 2 weeks ([3]; pH 7, 40 C.) [% Area] | Hydrolysis to treprostinil, % Area, t = 3 weeks ([3]; pH 7, 40 C.) [% Area] | Hydrolysis to treprostinil, % Area, t = 1 week ([3]; pH 8, 40 C.) [% Area] | Hydrolysis to treprostinil, % Area, t = 2 weeks ([3]; pH 8, 40 C.) [% Area] | Hydrolysis to treprostinil, % Area, t = 3 weeks ([3]; pH 8, 40 C.) [% Area] | EP1 Relative to Tre [6] | EP2 Relative to Tre [5] | further results
treprostinil diphosphate [Prodrug LXXIII] | 217 | 208x | 0.00 | 0.00 | 0.00 | 0.00 | 0.00 | 0.00 | 0.00 | 0.00 | 0.00 |  |  | DP1 Relative to Tre ([1]; Table 23): 217x; Activity at the DP1 receptor compared to treprostinil ([1]; summary of findings): several hundred-fold less active; IP Relative to Tre ([2]; Table 23): 208x; AUC ([4]; human): 2.744 µmol·min/L; Mono AUC (treprostinil formed) ([4]; human): 2.744 µmol·min/L; Percent Remaining (Avg, n = 3) 0 min ([4]; pooled human skin homogenate, 1 μM, 37° C., 0 min): 100%; Percent Remaining (Avg, n = 3) 30 min ([4]; pooled human skin homogenate, 1 μM, 37° C., 30 min): 86.2%; Percent Remaining (Avg, n = 3) 60 min ([4]; pooled human skin homogenate, 1 μM, 37° C., 60 min): 71.2%; Percent Remaining (Avg, n = 3) 120 min ([4]; pooled human skin homogenate, 1 μM, 37° C., 120 min): 64.0%; Activity at the EP2 receptor compared to treprostinil ([5]; summary of findings): inactive
CCCCC[C@H](O)CC[C@@H]1[C@H]2Cc3cccc(OCC(=O)OCC)c3C[C@H]2C[C@H]1O [Treprostinil ethyl ester, reference compound] | 18 | 535x |  |  |  |  |  |  |  |  |  | 30x | 11x | 
CCCCCC(CCC1C(O)CC2Cc3c(cccc3OCC(=O)O)CC21)OC(=O)COc1ccccc1 (stereo not drawn) [Prodrug LXV] | 89 | 599x | 0.13 | 0.29 | 0.39 | 0.96 | 1.9 | 2.7 | 6.0 | 11.4 | 16.9 | 64x* | 187x* | 
CCCCCC(CCC1C(O)CC2Cc3c(cccc3OCC(=O)O)CC21)OCOC(=O)C(C)(C)C (stereo not drawn) [Prodrug LII] | 73 | 527x |  |  |  |  |  |  |  |  |  | 133x* | 26x | 
CCCCCC(CCC1C(O)CC2Cc3c(cccc3OCC(=O)O)CC21)OC(=O)C(C)C (stereo not drawn) [Prodrug LXVII] | 184 | 148x | 0.00 | 0.00 | 0.00 | 0.00 | 0.00 | 0.00 | 0.00 | 0.23 | 0.27 |  | 34x* | 
CCCCCC(CCC1C(O)CC2Cc3c(cccc3OCC(=O)O)CC21)OC(=O)C12CC3CC(CC(C3)C1)C2 (stereo not drawn) [Prodrug LXIX] | 1897 | 1470x* | 0.00 | 0.00 | 0.00 | 0.00 | 0.00 | 0.00 | 0.00 | 0.00 | 0.00 |  | 236x* | 
CCCCCC(CCC1C(O)CC2Cc3c(cccc3OCC(=O)O)CC21)OC(=O)COc1ccc(OC(F)(F)F)cc1 (stereo not drawn) [Prodrug LXIV] | 38 | 162x* | 0.72 | 1.2 | 1.5 | 0.46 | 0.93 | 1.2 | 1.8 | 3.9 | 5.8 | 0.03x* | 24x* | 
CCCCC[C@H](O)CC[C@@H]1[C@H]2Cc3cccc(OCC(=O)O)c3C[C@H]2C[C@H]1O [Treprostinil] |  |  |  |  |  |  |  |  |  |  |  |  |  | first-pass effect [7]: approximately 60%; half-life once absorbed [8]: about 1 hour

Reference: patent US12491170B2, “Stable treprostinil prodrugs” (United Therapeutics Corporation, priority 2020, dated 2025)
